Patent publication US20130111611A1, “METHOD TO MEASURE THE METABOLIC RATE OR RATE OF GLUCOSE CONSUMPTION OF CELLS OR TISSUES WITH HIGH SPATIOTEMPORAL RESOLUTION USING A GLUCOSE NANOSENSOR” (CARNEGIE, INSTITUTION OF WASHINGTON, priority 2010, published 2013)

Test system: cultured astrocytes
Experiment: Intracellular glucose and glycolytic rate in cultured astrocytes with FRET glucose nanosensor (ITM)
Assay type: cell-based, mouse
Conditions: for glycolytic rate obtained with the GLUT inhibitor: cultured astrocytes, n=20 cells in three paired experiments, not significantly different between inhibitors; for effect on the intracellular concentration of glucose: cultured astrocytes exposed to the compound, FIG. 3a
Description: In another embodiment, the disruption of the glucose steady-state can be attained by blocking the glucose transporter GLUT with a suitable inhibitor (ITM).
Independent of the embodiment of the method used to disrupt the steady-state, the rate of glycolysis is estimated by fitting a monoexponential function to the time course of decay. In one embodiment, the metabolic rate is computed from the rate of glucose concentration decrease at the point when the intracellular concentration becomes equal to the extracellular concentration, for instance at 0.3 mM (interrupted line in FIG. 2b). In a second embodiment, in the presence of a GLUT blocker, the metabolic rate is computed from the rate of glucose concentration decrease at any glucose concentration.
Animals used were mixed F1 male mice (C57BU6J×CBA/J), kept in an animal room under SPF conditions at a room temperature of 20±2° C., in a 12/12 h light/dark cycle with free access to food and water. All experiments were approved by the Centro de Estudios Científicos Animal Care and Use Committee. Mixed cortical cultures of neuronal and glial cells were prepared from 1-3 day-old neonatal mice as described in Loaiza et al.^19, except that N1-N2/MEM was replaced by B27-supplemented Neurobasal medium (Gibco). Cultures were maintained at 37° C. in a humidified atmosphere of 5% CO2. At days 5-7, cultures in 35 mm dishes were transfected with 5 μg plasmid DNA using Lipofectamine 2000 (Gibco) or alternatively, exposed to 5×10^6 PFU of adenoviral vector.
Experiments were carried out at room temperature (22-25° C.). Cultured cells were imaged in HEPES-buffered saline containing (in mM): 136 NaCl, 3 KCl, 1.25 CaCl2, 1.25 MgSO4, 1-2 glucose, 2 sodium lactate, 10 HEPES, pH 7.4 or in 95% O2/5% CO2-gassed buffer of the following composition (in mM): 112 NaCl, 3 KCl, 1.25 CaCl2, 1.25 MgCl2, 1-2 glucose, 2 sodium lactate, 10 HEPES, 24 NaHCO3, pH 7.4. Brain slices were superfused with a 95% O2/5% CO2-gassed buffer containing (in mM): 126 NaCl, 3 KCl, 1.25 NaH2PO4, 1.25 CaCl2, 1.25 MgCl2, 2-3 glucose, 1 sodium lactate, 26 NaHCO3, pH 7.4. When using higher K^+ concentrations, NaCl was adjusted to maintain isotonicity. Cultures and slices were imaged with an Olympus IX70 inverted microscope equipped with a 40× oil-immersion objective, a Cairn monochromator with Optosplit (Faversham, UK), and a Hamamatsu Orca camera (Hamamatsu City, Japan) controlled by Kinetics software. For FRET measurements, CFP was excited at 430 nm for 400 ms. Because of the very high FRET efficiency of FLII12 Pglu600μ ? , which results in low CFP signal^7, we opted for not using the CFP signal in our protocol. Instead, YFP/citrine was excited for 50 ms, which provided a sugar-insensitive denominator for the FRET ratio. […]

Structure (SMILES)	glycolytic rate obtained with the GLUT inhibitor	effect on the intracellular concentration of glucose
O=C(CCc1ccc(O)cc1)c1c(O)cc(O)cc1O [Phloretin]	1.7 ± 0.3 µM/s	
C=C1[C@@H](C)[C@H]2[C@H](Cc3ccccc3)NC(=O)[C@]23OC(=O)/C=C/[C@H](O)CCC[C@@H](C)C/C=C/[C@H]3[C@@H]1O [cytochalasin B]	1.8 ± 0.3 µM/s	linear decrease in the concentration of glucose
C=C1[C@@H](C)[C@H]2[C@H](Cc3ccccc3)NC(=O)[C@]23[C@H](OC(C)=O)/C=C/[C@@](C)(O)C(=O)[C@@H](C)C/C=C/[C@H]3[C@@H]1O [cytochalasin D]		did not affect the concentration of glucose
